Measured values from the NIST ThermoML archive (doi:10.1016/j.tca.2007.08.008).

Key:
[1] = excess molar enthalpy (molar enthalpy of mixing); xn = mol fraction of the nth substance listed; settings: 298.15 K, 101.3 kPa, Liquid, Calvet calorimetry
[2] = Liquid; for mass density: 303.15 K, 101.33 kPa, Pycnometric method; for Normal boiling temperature: Ebulliometric method (Recirculating still)

ClC(Cl)C(Cl)Cl [1,1,2,2-tetrachloroethane] + C[S+](C)[O-]
[1]
Settings	excess molar enthalpy [kcal/mol]
x1 = 0.0378	-0.0704
x1 = 0.0688	-0.149
x1 = 0.1005	-0.229
x1 = 0.1295	-0.307
x1 = 0.1325	-0.309
x1 = 0.1565	-0.372
x1 = 0.1793	-0.423
x1 = 0.2167	-0.494
x1 = 0.2914	-0.652
x1 = 0.3555	-0.774
x1 = 0.4111	-0.839
x1 = 0.4577	-0.843
x1 = 0.4979	-0.84
x1 = 0.5577	-0.816
x1 = 0.6277	-0.755
x1 = 0.6654	-0.712
x1 = 0.7123	-0.664
x1 = 0.7577	-0.609
x1 = 0.8121	-0.514
x1 = 0.8537	-0.435
x1 = 0.9099	-0.252

CC(Cl)(Cl)Cl [1,1,1-trichloroethane] + C[S+](C)[O-]
[1]
Settings	excess molar enthalpy [kcal/mol]
x1 = 0.0243	-0.0102
x1 = 0.0579	-0.023
x1 = 0.109	-0.0422
x1 = 0.1532	-0.0563
x1 = 0.1973	-0.0679
x1 = 0.244	-0.0796
x1 = 0.2857	-0.087
x1 = 0.3462	-0.0932
x1 = 0.4106	-0.0986
x1 = 0.4797	-0.0987
x1 = 0.5571	-0.0945
x1 = 0.6064	-0.0869
x1 = 0.6632	-0.0775
x1 = 0.7189	-0.0666
x1 = 0.7771	-0.0526
x1 = 0.8537	-0.0323
x1 = 0.9297	-0.0102

ClCCCl [1,2-dichloroethane] + C[S+](C)[O-]
[1]
Settings	excess molar enthalpy [kcal/mol]
x1 = 0.0732	-0.0141
x1 = 0.1296	-0.0219
x1 = 0.1713	-0.0257
x1 = 0.2259	-0.0301
x1 = 0.2783	-0.0361
x1 = 0.3275	-0.0458
x1 = 0.3609	-0.0548
x1 = 0.4054	-0.0712
x1 = 0.4636	-0.0899
x1 = 0.5266	-0.11
x1 = 0.6133	-0.138
x1 = 0.6613	-0.143
x1 = 0.7158	-0.131
x1 = 0.7593	-0.127
x1 = 0.8032	-0.106
x1 = 0.861	-0.0677
x1 = 0.9269	-0.0285

ClC=C(Cl)Cl [trichloroethene]
[2]
Settings	Normal boiling temperature [°C]	mass density [kg/m3]
–	87.10	1451.42

ClCCCl [1,2-dichloroethane]
[2]
Settings	Normal boiling temperature [°C]	mass density [kg/m3]
–	83.80	1238.41

C[S+](C)[O-] [dimethyl sulfoxide]
[2]
Settings	Normal boiling temperature [°C]	mass density [kg/m3]
–	189.04	1092.4

ClC=C(Cl)Cl [trichloroethene] + C[S+](C)[O-]
[1]
Settings	excess molar enthalpy [kcal/mol]
x1 = 0.0673	-0.0229
x1 = 0.1345	-0.0579
x1 = 0.2079	-0.106
x1 = 0.3016	-0.152
x1 = 0.3784	-0.153
x1 = 0.4461	-0.147
x1 = 0.4987	-0.14
x1 = 0.6022	-0.11
x1 = 0.6641	-0.102
x1 = 0.7014	-0.098
x1 = 0.737	-0.0976
x1 = 0.8114	-0.0854
x1 = 0.8611	-0.0706
x1 = 0.9151	-0.0481

ClC(Cl)=C(Cl)Cl [tetrachloroethene] + C[S+](C)[O-]
[1]
Settings	excess molar enthalpy [kcal/mol]
x1 = 0.0544	0.0285
x1 = 0.1116	0.0584
x1 = 0.171	0.0912
x1 = 0.2237	0.117
x1 = 0.2735	0.141
x1 = 0.3306	0.155
x1 = 0.385	0.157
x1 = 0.477	0.139
x1 = 0.5162	0.123
x1 = 0.5695	0.105
x1 = 0.6333	0.0866
x1 = 0.701	0.0645
x1 = 0.7632	0.0522
x1 = 0.8252	0.0488
x1 = 0.8872	0.0456
x1 = 0.9519	0.0314

ClC(Cl)=C(Cl)Cl [tetrachloroethene]
[2]
Settings	Normal boiling temperature [°C]	mass density [kg/m3]
–	121.00	1606.39

ClC(Cl)C(Cl)Cl [1,1,2,2-tetrachloroethane]
[2]
Settings	Normal boiling temperature [°C]	mass density [kg/m3]
–	145.20	1578.59

CC(Cl)(Cl)Cl [1,1,1-trichloroethane]
[2]
Settings	Normal boiling temperature [°C]	mass density [kg/m3]
–	74.20	1320.97
